From ChEMBL document CHEMBL1132945, “Ethylene glycol and amino acid derivatives of 5-aminolevulinic acid as new photosensitizing precursors of protoporphyrin IX in cells” (J Med Chem, 2000)

Legend:
A549 = experiment: Cytotoxicity against A549 cells; No cytotoxicity; assay type: functional, cell-based; settings: Homo sapiens
HCEC = experiment: Cytotoxicity against HCEC cells; No cytotoxicity; assay type: functional, cell-based; settings: Homo sapiens

With `CCOCCOC(=O)CCC(=O)CN` the Cytotoxicity (A549) was “No cytotoxicity” and the Cytotoxicity (HCEC) was “No cytotoxicity”.

For `CCOCCOCCOC(=O)CCC(=O)CN`, the Cytotoxicity (A549) was “No cytotoxicity” and the Cytotoxicity (HCEC) was “No cytotoxicity”.

With `CCOCCOCCOCCOC(=O)CCC(=O)CN` the Cytotoxicity (A549) was “No cytotoxicity” and the Cytotoxicity (HCEC) was “No cytotoxicity”.

For `COCCOC(=O)CCC(=O)CN`, the Cytotoxicity (A549) was “No cytotoxicity” and the Cytotoxicity (HCEC) was “No cytotoxicity”.
